Test results published in patent EP1285918A1, “C7 Ester substituted taxanes as antitumor agents” (Florida State University Research Foundation, Inc., priority 2001, dated 2003).
pIC50: −log10 of the molar value.

Each compound was assayed on HCT116 (assay: In Vitro cytotoxicity measured by the cell colony formation assay). Details: Homo sapiens, HCT-116; 72 h drug incubation, colonies counted after 7 days; concentration producing 50% inhibition of colony formation; read-out: IN VITRO ID 50 (nm) HCT116.
Type: cell-based
Protocol: In Vitro cytotoxicity measured by the cell colony formation assay
Four hundred cells (HCT116) were plated in 60 mm Petri dishes containing 2.7 mL of medium (modified McCoy's 5a medium containing 10% fetal bovine serum and 100 units/mL penicillin and […] streptomycin). The cells were incubated in a CO2 incubator at 37 °C for 5 h for attachment to the bottom of Petri dishes. The compounds identified in Example 2 were made up fresh in medium at ten times the final concentration, and then 0.3 mL of this stock solution was added to the 2.7 mL of medium in the dish. The cells were then incubated with drugs for 72 h at 37 ° C. At the end of incubation the drug-containing media were decanted, the dishes were rinsed with 4 mL of Hank's Balance Salt Solution (HBSS), 5 mL of fresh medium was added, and the dishes were returned to the incubator for colony formation. The cell colonies were counted using a colony counter after incubation for 7 days. Cell survival was calculated and the values of ID50 (the drug concentration producing 50% inhibition of colony formation) were determined for each tested compound.

Compared with `CCC(=O)O[C@H]1C[C@H]2OC[C@@]2(OC(C)=O)[C@H]2[C@H](OC(=O)c3ccccc3)[C@]3(O)C[C@H](OC(=O)[C@H](O)[C@@H](NC(=O)OC(C)(C)C)c4ccccn4)C(C)=C([C@@H](O)C(=O)[C@]12C)C3(C)C` [Compound 1364], `CCC(=O)O[C@H]1C[C@H]2OC[C@@]2(OC(C)=O)[C@H]2[C@H](OC(=O)c3ccccc3)[C@]3(O)C[C@H](OC(=O)[C@H](O)[C@@H](NC(=O)OC(C)(C)C)c4cccnc4)C(C)=C([C@@H](O)C(=O)[C@]12C)C3(C)C` [Compound 1372] is lower in pIC50: over 8.00 for the first, 7.58 for the second.

`CCC(=O)O[C@H]1C[C@H]2OC[C@@]2(OC(C)=O)[C@H]2[C@H](OC(=O)c3ccccc3)[C@]3(O)C[C@H](OC(=O)[C@H](O)[C@@H](NC(=O)OC(C)(C)C)c4ccncc4)C(C)=C([C@@H](O)C(=O)[C@]12C)C3(C)C` [Compound 1386] and `CCCC(=O)OC1CC2OCC2(OC(C)=O)C2C(OC(=O)c3ccccc3)C3(O)CC(OC(=O)C(O)C(NC(=O)OC(C)(C)C)c4cccs4)C(C)=C(C(O)C(=O)C12C)C3(C)C` (stereo not shown) [Compound 4256] cannot be ordered by pIC50: over 9.00 for the first, over 9.00 for the second.

`CCC(=O)O[C@H]1C[C@H]2OC[C@@]2(OC(C)=O)[C@H]2[C@H](OC(=O)c3ccccc3)[C@]3(O)C[C@H](OC(=O)[C@H](O)[C@@H](NC(=O)OC(C)(C)C)C(C)C)C(C)=C([C@@H](O)C(=O)[C@]12C)C3(C)C` [Compound 1434] and `CCC(=O)O[C@H]1C[C@H]2OC[C@@]2(OC(C)=O)[C@H]2[C@H](OC(=O)c3ccccc3)[C@]3(O)C[C@H](OC(=O)[C@H](O)[C@@H](NC(=O)OC(C)(C)C)C4CCC4)C(C)=C([C@@H](O)C(=O)[C@]12C)C3(C)C` [Compound 1447] cannot be ordered by pIC50: over 8.00 for the first, over 8.00 for the second.

Going from `CCC(=O)O[C@H]1C[C@H]2OC[C@@]2(OC(C)=O)[C@H]2[C@H](OC(=O)c3ccccc3)[C@]3(O)C[C@H](OC(=O)[C@H](O)[C@@H](NC(=O)c4ccco4)c4cccs4)C(C)=C([C@@H](O)C(=O)[C@]12C)C3(C)C` [Compound 3069] to `CCCC(=O)OC1CC2OCC2(OC(C)=O)C2C(OC(=O)c3ccccc3)C3(O)CC(OC(=O)C(O)C(NC(=O)c4ccco4)c4cccs4)C(C)=C(C(O)C(=O)C12C)C3(C)C` (stereo not shown) [Compound 4219], the pIC50 falls from over 9.00 to 7.54. The first is the more potent here.

`CCC(=O)O[C@H]1C[C@H]2OC[C@@]2(OC(C)=O)[C@H]2[C@H](OC(=O)c3ccccc3)[C@]3(O)C[C@H](OC(=O)[C@H](O)[C@@H](NC(=O)OC(C)C)c4cccs4)C(C)=C([C@@H](O)C(=O)[C@]12C)C3(C)C` [Compound 3082] and `CCCC(=O)OC1CC2OCC2(OC(C)=O)C2C(OC(=O)c3ccccc3)C3(O)CC(OC(=O)C(O)C(NC(=O)OC(C)C)c4cccs4)C(C)=C(C(O)C(=O)C12C)C3(C)C` (stereo not shown) [Compound 4135] cannot be ordered by pIC50: over 9.00 for the first, over 9.00 for the second.

`CCCC(=O)N[C@@H](c1ccco1)[C@@H](O)C(=O)O[C@H]1C[C@@]2(O)[C@@H](OC(=O)c3ccccc3)[C@@H]3[C@]4(OC(C)=O)CO[C@@H]4C[C@H](OC(=O)CC)[C@@]3(C)C(=O)[C@H](O)C(=C1C)C2(C)C` [Compound 3171] and `CCOC(=O)N[C@@H](c1ccco1)[C@@H](O)C(=O)O[C@H]1C[C@@]2(O)[C@@H](OC(=O)c3ccccc3)[C@@H]3[C@]4(OC(C)=O)CO[C@@H]4C[C@H](OC(=O)CC)[C@@]3(C)C(=O)[C@H](O)C(=C1C)C2(C)C` [Compound 3611] cannot be ordered by pIC50: over 9.00 for the first, over 9.00 for the second.

`CCC(=O)O[C@H]1C[C@H]2OC[C@@]2(OC(C)=O)[C@H]2[C@H](OC(=O)c3ccccc3)[C@]3(O)C[C@H](OC(=O)[C@H](O)[C@@H](NC(=O)OCC(C)C)c4ccco4)C(C)=C([C@@H](O)C(=O)[C@]12C)C3(C)C` [Compound 3196] and `CCC(=O)O[C@H]1C[C@H]2OC[C@@]2(OC(C)=O)[C@H]2[C@H](OC(=O)c3ccccc3)[C@]3(O)C[C@H](OC(=O)[C@H](O)[C@@H](NC(=O)OC(C)C)c4ccco4)C(C)=C([C@@H](O)C(=O)[C@]12C)C3(C)C` [Compound 3444] cannot be ordered by pIC50: over 8.00 for the first, over 9.00 for the second.

`CCC(=O)O[C@H]1C[C@H]2OC[C@@]2(OC(C)=O)[C@H]2[C@H](OC(=O)c3ccccc3)[C@]3(O)C[C@H](OC(=O)[C@H](O)[C@@H](NC(=O)OCC(C)C)c4cccs4)C(C)=C([C@@H](O)C(=O)[C@]12C)C3(C)C` [Compound 3232] and `CCCC(=O)OC1CC2OCC2(OC(C)=O)C2C(OC(=O)c3ccccc3)C3(O)CC(OC(=O)C(O)C(NC(=O)OCC(C)C)c4cccs4)C(C)=C(C(O)C(=O)C12C)C3(C)C` (stereo not shown) [Compound 4290] cannot be ordered by pIC50: over 9.00 for the first, over 8.00 for the second.

`CCCC(=O)N[C@@H](c1cccs1)[C@@H](O)C(=O)O[C@H]1C[C@@]2(O)[C@@H](OC(=O)c3ccccc3)[C@@H]3[C@]4(OC(C)=O)CO[C@@H]4C[C@H](OC(=O)CC)[C@@]3(C)C(=O)[C@H](O)C(=C1C)C2(C)C` [Compound 3327] and `CCOC(=O)NC(c1cccs1)C(O)C(=O)OC1CC2(O)C(OC(=O)c3ccccc3)C3C4(OC(C)=O)COC4CC(OC(=O)CC)C3(C)C(=O)C(O)C(=C1C)C2(C)C` (stereo not shown) [Compound 4044] cannot be ordered by pIC50: over 8.00 for the first, over 9.00 for the second.

`CCC(=O)O[C@H]1C[C@H]2OC[C@@]2(OC(C)=O)[C@H]2[C@H](OC(=O)c3ccccc3)[C@]3(O)C[C@H](OC(=O)[C@H](O)[C@@H](NC(=O)c4ccccc4)c4ccsc4)C(C)=C([C@@H](O)C(=O)[C@]12C)C3(C)C` [Compound 3388] and `CCCC(=O)OC1CC2OCC2(OC(C)=O)C2C(OC(=O)c3ccccc3)C3(O)CC(OC(=O)C(O)C(NC(=O)c4ccccc4)c4cccs4)C(C)=C(C(O)C(=O)C12C)C3(C)C` (stereo not shown) [Compound 4175] cannot be ordered by pIC50: over 8.00 for the first, over 8.00 for the second.

`CCC(=O)O[C@H]1C[C@H]2OC[C@@]2(OC(C)=O)[C@H]2[C@H](OC(=O)c3ccccc3)[C@]3(O)C[C@H](OC(=O)[C@H](O)[C@@H](NC(=O)c4cccs4)c4cccs4)C(C)=C([C@@H](O)C(=O)[C@]12C)C3(C)C` [Compound 3479] and `CCCC(=O)OC1CC2OCC2(OC(C)=O)C2C(OC(=O)c3ccccc3)C3(O)CC(OC(=O)C(O)C(NC(=O)c4cccs4)c4cccs4)C(C)=C(C(O)C(=O)C12C)C3(C)C` (stereo not shown) [Compound 4388] cannot be ordered by pIC50: over 9.00 for the first, over 9.00 for the second.

`C/C=C/C(=O)N[C@@H](c1cccs1)[C@@H](O)C(=O)O[C@H]1C[C@@]2(O)[C@@H](OC(=O)c3ccccc3)[C@@H]3[C@]4(OC(C)=O)CO[C@@H]4C[C@H](OC(=O)CC)[C@@]3(C)C(=O)[C@H](O)C(=C1C)C2(C)C` [Compound 3560] and `CCC(=O)OC1CC2OCC2(OC(C)=O)C2C(OC(=O)c3ccccc3)C3(O)CC(OC(=O)C(O)C(NC(=O)C=C(C)C)c4cccs4)C(C)=C(C(O)C(=O)C12C)C3(C)C` (stereo not shown) [Compound 4312] cannot be ordered by pIC50: over 9.00 for the first, over 9.00 for the second.

`CCC(=O)O[C@H]1C[C@H]2OC[C@@]2(OC(C)=O)[C@H]2[C@H](OC(=O)c3ccccc3)[C@]3(O)C[C@H](OC(=O)[C@H](O)[C@@H](NC(=O)c4ccco4)c4ccco4)C(C)=C([C@@H](O)C(=O)[C@]12C)C3(C)C` [Compound 3629] and `CCC(=O)OC1CC2OCC2(OC(C)=O)C2C(OC(=O)c3ccccc3)C3(O)CC(OC(=O)C(O)C(NC(=O)c4cccs4)c4ccco4)C(C)=C(C(O)C(=O)C12C)C3(C)C` (stereo not shown) [Compound 3632] cannot be ordered by pIC50: over 9.00 for the first, over 9.00 for the second.

`CCC(=O)OC1CC2OCC2(OC(C)=O)C2C(OC(=O)c3ccccc3)C3(O)CC(OC(=O)C(O)C(NC(=O)c4cccnc4)c4cccs4)C(C)=C(C(O)C(=O)C12C)C3(C)C` (stereo not shown) [Compound 4106] and `CCCC(=O)OC1CC2OCC2(OC(C)=O)C2C(OC(=O)c3ccccc3)C3(O)CC(OC(=O)C(O)C(NC(=O)C=C(C)C)c4cccs4)C(C)=C(C(O)C(=O)C12C)C3(C)C` (stereo not shown) [Compound 4283] cannot be ordered by pIC50: over 8.00 for the first, over 9.00 for the second.
